Source: patent US20250243190A1, “NEW DEUTERATED RORGAMMA/RORGAMMAT INVERSE AGONISTS” (IMMUNIC AG, priority 2022, published 2025)

Legend:
[1] = target: T1, RORγt (Homo sapiens, UniProt P51449); experiment: Indigo Biosciences Human RAR-related Orphan Receptor, Gamma Reporter Assay (in vitro inhibition of RORγt); format: cell-based; conditions: RORγt reporter cells, luciferase readout, 22-24 h incubation; read-out: IC50 range
T1 sequence (P51449 269-508 limits assumed): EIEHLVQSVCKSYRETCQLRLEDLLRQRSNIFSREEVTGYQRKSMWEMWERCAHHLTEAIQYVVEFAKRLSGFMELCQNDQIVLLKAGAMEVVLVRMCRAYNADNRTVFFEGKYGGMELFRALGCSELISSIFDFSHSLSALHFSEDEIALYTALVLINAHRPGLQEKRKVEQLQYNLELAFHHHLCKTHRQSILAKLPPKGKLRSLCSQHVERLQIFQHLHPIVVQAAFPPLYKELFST
Method: The in vitro inhibition of RORγt was measured using Indigo Biosciences Human RAR-related Orphan Receptor, Gamma Reporter Assay System (Product #IB304001-32) as described in the technical manual. In brief, 200 μL of Reporter Cells is dispensed into wells of the assay plate and preincubated for 4-6 h. Following the pre-incubation period, culture media are discarded and 200 µL/well of the prepared 1×-concentration treatment media are added. Following 22-24 h incubation, treatment media are discarded and Luciferase Detection Reagent is added. The intensity of light emission (in units of ‘Relative Light Units’; RLU) from each assay well is quantified using a plate-reading luminometer. Average values of RLU were determined for each treatment concentration. Non-linear regression analyses were performed and IC50 values determined using GraphPad Prism software. Provided inverse-agonists ursolic acid served as positive control.

[2] = system: SARS-CoV-2; experiment: Antiviral activity on SARS-CoV-2, viral replication (YFP) assay; format: cell-based; conditions: Severe acute respiratory syndrome coronavirus 2, read-out: EC50 range
Description: (§1) The assay for viral replication (YFP) and the cell viability assay has been described in general in Pathogens 2021; 10:1076 and applied to compounds of the present invention furnished the following results: […]

[3] = Cell viability assay accompanying the SARS-CoV-2 assay; format: cell-based; conditions: cell viability assay of the SARS-CoV-2 test
Description: as §1

[4] = Mouse pharmacokinetics, oral or intravenous cassette dosing; format: in vivo, mice (C57BL/6J); conditions: C57BL/6J, whole blood, 3 female mice, 5 mg/kg oral cassette, sampling 0.25-8 h
Method: The pharmacokinetics of the compounds of the present invention was evaluated in 3 male and 3 female mice (C57BL/6J, 8 week old) after oral or intravenous cassette dosing to assess the oral bioavailability. Dose was 5 mg/kg (oral) and 1 mg/kg (intravenous), application volume was 5 mL/kg (oral) and 0.5 mL/kg (intravenous), vehicle was 5% solutol, 95% NaCl solution (at 0.9% saline concentration) for oral and 5% solutol, 5% Ethanol, 90% NaCl solution (at 0.9% saline concentration) for intravenous. At each designated time point (0.25, 0.5, 1, 2, 4, 8 and 24 h after dosing), 20 μL whole blood were collected from the tail vein into Li-heparin tubes, frozen on dry ice within 1-2 minutes of sampling and stored at −20° C. until processed for LC-MS analysis. The obtained data is as follows:
(§2) The pharmacokinetics of additional compounds of the present invention was evaluated in 3 female mice (C57BL/6J, 8 week old) after oral cassette dosing. Dose was 5 mg/kg, application volume was 5 mL/kg, vehicle was 5% solutol, 95% NaCl solution (at 0.9% saline concentration). At each designated time point (0.5, 1, 2, 4, 8 and 24 h after dosing), 20 μL whole blood were collected from the tail vein into Li-heparin tubes, frozen on dry ice within 1-2 minutes of sampling and stored at −20° C. until processed for LC-MS analysis. The obtained data is as follows:
as §2, with “(0.25, 0.5,” for “(0.5,”, “4 and” for “4,”, “8” for “8 and 24”, “analysis.” for “analysis. The obtained data is as follows:”

Row | SMILES | IC50 [1] | also measured
1 | [2H]C([2H])(CC(C)(C)O)n1ncc(-c2onc(-c3c(F)cc(OCCN4CCOCC4)cc3Cl)c2-c2ncccn2)c1C(F)(F)F [Example 6, 4-(4-(3-(2-Chloro-6-fluoro-4-(2-morpholinoethoxy)phenyl)-4-(pyrimidin-2-yl)isoxazol-5-yl)-5-(trifluoromethyl)-1H-pyrazol-1-yl)-2-methylbutan-4,4-d2-2-ol] | 100 to 1000 nM | EC50 [2]: 100 to 1000 nM; CC50 [3]: 27000 nM
2 | [2H]C([2H])(CC(C)(C)O)n1ncc(-c2onc(-c3c(F)cc(OC)cc3Cl)c2-c2ncccn2)c1C(F)(F)F [Example 5, 4-(4-(3-(2-Chloro-6-fluoro-4-methoxyphenyl)-4-(pyrimidin-2-yl)isoxazol-5-yl)-5-(trifluoro-methyl)-1H-pyrazol-1-yl)-2-methylbutan-4,4-d2-2-ol] | 100 to 1000 nM | EC50 [2]: 100 to 1000 nM; CC50 [3]: > 100000 nM
3 | [2H][C@]1(n2ncc(-c3onc(-c4c(F)cccc4Cl)c3-c3ncccn3)c2C(F)(F)F)C[C@@](C)(O)C1 [Example 2-2, (1s,3s)-3-(4-(3-(2-chloro-6-fluorophenyl)-4-(pyrimidin-2-yl)isoxazol-5-yl)-5-(trifluoromethyl)-1H-pyrazol-1-yl)-1-methylcyclobutan-3-d-1-ol] | 10 to 100 nM | 
4 | [2H]C([2H])(OC(C)C)c1c(-c2c(F)cccc2Cl)noc1-c1cnn(-c2cc(F)cc(Cl)c2)c1C(F)(F)F [111/4] | 10 to 100 nM | 
5 | [2H]C([2H])([2H])OC(=O)c1c(-c2c(F)cccc2Cl)noc1-c1cnn(C([2H])([2H])CC(C)(C)O)c1C(F)(F)F [Example 7/2, Methyl-d3 3-(2-chloro-6-fluorophenyl)-5-(1-(3-hydroxy-3-methylbutyl-1,1-d2)-5-(tri-fluoromethyl)-1H-pyrazol-4-yl)isoxazole-4-carboxylate] | 10 to 100 nM | EC50 [2]: < 100 nM; CC50 [3]: 63000 nM
6 | [2H]c1cc([2H])c(-n2ncc(-c3onc(-c4c(F)cccc4Cl)c3-c3nccs3)c2C(F)(F)F)c([2H])c1Cl [Example 106, 3-(2-Chloro-6-fluorophenyl)-5-(1-(3-chlorophenyl-2,4,6-d3)-5-(trifluoromethyl)-1H-pyrazol-4-yl)-4-(thiazol-2-yl)isoxazole] | < 10 nM | 
7 | [2H]C([2H])(OCC)c1c(-c2c(F)cccc2Cl)noc1-c1cnn(-c2cccc(Cl)c2)c1C(F)(F)F [110/3] | 10 to 100 nM | 
8 | [2H]c1nc(-c2c(-c3c(F)cccc3Cl)noc2-c2cnn(-c3cccc(Cl)c3)c2C(F)(F)F)nc([2H])c1[2H] [Example 103, 3-(2-Chloro-6-fluorophenyl)-5-(1-(3-chlorophenyl)-5-(trifluoromethyl)-1H-pyrazol-4-yl)-4-(pyrimidin-2-yl-d3)isoxazole] | 10 to 100 nM | 
9 | [2H]C([2H])(OC1CC1)c1c(-c2c(F)cccc2Cl)noc1-c1cnn(C([2H])([2H])CC(C)(C)O)c1C(F)(F)F [Example 9, 4-(4-(3-(2-Chloro-6-fluorophenyl)-4-(cyclopropoxymethyl-d2)isoxazol-5-yl)-5-(trifluoro-methyl)-1H-pyrazol-1-yl)-2-methylbutan-4,4-d2-2-ol] | 10 to 100 nM | EC50 [2]: 100 to 1000 nM; CC50 [3]: 18000 nM
10 | [2H][C@]1(n2ncc(-c3onc(-c4ccccc4Cl)c3-c3ncccn3)c2C(F)(F)F)C[C@@](C)(O)C1 [2-2/1] | 10 to 100 nM | 
11 | [2H]c1nc(-c2c(-c3c(F)cccc3Cl)noc2-c2cnn(-c3cccc(Cl)c3)c2C(F)(F)F)sc1[2H] [Example 107, 3-(2-Chloro-6-fluorophenyl)-5-(1-(3-chlorophenyl)-5-(trifluoromethyl)-1H-pyrazol-4-yl)-4-(thiazol-2-yl-d2)isoxazole] | 10 to 100 nM | half-life [4]: 1.6 h; AUC(0-t) ([4]; read-out: AUC0-8 h): 871 ng·h/mL
12 | [2H]C([2H])(OC([2H])([2H])C([2H])([2H])[2H])c1c(-c2c(F)cccc2Cl)noc1-c1cnn(-c2cccc(Cl)c2)c1C(F)(F)F [Example 110/1] | 10 to 100 nM | EC50 [2]: < 100 nM; CC50 [3]: > 100000 nM
13 | [2H]C([2H])(CC(C)(C)O)n1ncc(-c2onc(-c3c(F)cccc3Cl)c2-c2ncccn2)c1COC [10/2] | 100 to 1000 nM | EC50 [2]: 1000 to 50000 nM; CC50 [3]: > 100000 nM
14 | [2H]C([2H])([2H])C([2H])([2H])OC(=O)c1c(-c2c(F)cccc2Cl)noc1-c1cnn(-c2cccc(Cl)c2)c1C(F)(F)F [Example 100/1] | < 10 nM | 
15 | [2H]c1c([2H])c(F)c(-c2noc(-c3cnn(-c4cccc(Cl)c4)c3C(F)(F)F)c2C(=O)OC)c(Cl)c1[2H] [Example 104, Methyl 3-(2-chloro-6-fluorophenyl-3,4,5-d3)-5-(1-(3-chlorophenyl)-5-(trifluoro-methyl)-1H-pyrazol-4-yl)isoxazole-4-carboxylate] | 10 to 100 nM | 
16 | [2H][C@]1(n2ncc(-c3onc(-c4c(F)cccc4Cl)c3-c3ncccn3)c2C(F)(F)F)C[C@](C)(O)C1 [Example 2-1, (1r,3r)-3-(4-(3-(2-Chloro-6-fluorophenyl)-4-(pyrimidin-2-yl)isoxazol-5-yl)-5-(trifluoro-methyl)-1H-pyrazol-1-yl)-1-methylcyclobutan-3-d-1-ol] | 100 to 1000 nM | 
17 | [2H]c1nc(-c2c(-c3c(F)cccc3Cl)noc2-c2cnn(C([2H])([2H])CC(C)(C)O)c2C(F)(F)F)sc1[2H] [Example 3-2] | < 10 nM | 
18 | [2H]c1c([2H])c(F)c(-c2noc(-c3cnn(C([2H])([2H])CC(C)(C)O)c3C(F)(F)F)c2-c2ncccn2)c(Cl)c1[2H] [5/2] | < 10 nM | 
19 | [2H]c1cc([2H])c(-n2ncc(-c3onc(-c4c(F)cccc4Cl)c3C(=O)OC)c2C(F)(F)F)c([2H])c1Cl [Example 105, Methyl 3-(2-chloro-6-fluorophenyl)-5-(1-(3-chlorophenyl-2,4,6-d3)-5-(trifluoro-methyl)-1H-pyrazol-4-yl)isoxazole-4-carboxylate] | < 10 nM | 
20 | [2H]C([2H])(OC(F)(F)F)c1c(-c2c(F)cccc2Cl)noc1-c1cnn(-c2cccc(Cl)c2)c1C(F)(F)F [Example 109, 3-(2-Chloro-6-fluorophenyl)-5-(1-(3-chlorophenyl)-5-(trifluoromethyl)-1H-pyrazol-4-yl)-4-((trifluoromethoxy)methyl-d2)isoxazole] | 10 to 100 nM | 
21 | [2H][C@]1(n2ncc(-c3onc(-c4c(F)cccc4Cl)c3-c3ncccn3)c2C(F)F)C[C@@](C)(O)C1 [4-2/1] | 10 to 100 nM | 
22 | [2H]C([2H])(OC1CC1)c1c(-c2c(F)cc(F)cc2Cl)noc1-c1cnn(-c2cccc(Cl)c2)c1C(F)(F)F [Example 111/1] | 100 to 1000 nM | 
23 | [2H][C@]1(n2ncc(-c3onc(-c4c(F)cccc4Cl)c3-c3ncccn3)c2C(F)F)C[C@](C)(O)C1 [Example 4-1/1] | 100 to 1000 nM | 
24 | [2H][C@]1(n2ncc(-c3onc(-c4ccccc4Cl)c3-c3ncccn3)c2C(F)(F)F)C[C@](C)(O)C1 [Example 2-1/1] | 100 to 1000 nM | 
25 | [2H]c1nc(-c2c(-c3c(F)cccc3Cl)noc2-c2cnn(C([2H])([2H])CC(C)(C)O)c2C(F)(F)F)nc([2H])c1[2H] [Example 3-3] | 10 to 100 nM | 
26 | [2H]C([2H])(OC1COC1)c1c(-c2c(F)cccc2Cl)noc1-c1cnn(-c2cccc(Cl)c2)c1C(F)(F)F [110/2] | 10 to 100 nM | 
27 | [2H]C([2H])(OC(C)C)c1c(-c2c(F)cc(F)cc2Cl)noc1-c1cnn(-c2cccc(Cl)c2)c1C(F)(F)F [111/2] | 100 to 1000 nM | 
28 | [2H]C([2H])(OC1CC1)c1c(-c2c(F)cccc2Cl)noc1-c1cnn(-c2cc(F)cc(Cl)c2)c1C(F)(F)F [111/3] | 10 to 100 nM | 
